These results are taken from ChEMBL document CHEMBL3507680, “University of Dundee, Gates Library screen for HepG2 cell viability”.

Molecules are shown by their SMILES.

The data set can be described thus: Human HepG2 cell viability assay in 384 well format. The class given is toxicity, cell-based. Particulars: HepG2 cells, read-out: Inhibition. Set-up: dose 125 nL, time 70.5 hour; concentration not given beside the values.
Consider `COCc1nc(Cn2c(C)cc(C(F)(F)F)cc2=O)no1`, for which the cytotoxicity at 70.5 h is 23.9%.

Take `CO[C@@H]1CN(c2ccccc2)S(=O)(=O)[C@@]12CCNC2`: the cytotoxicity at 70.5 h came out at 11.6%.

For the compound `CSCCC(Nc1nc(C)cc(C)n1)C(=O)NCC1CCOCC1` (stereo unspecified), the cytotoxicity at 70.5 h was -8.81%.

Take `O=C(NCc1cnc2n1CCN(CC1CC1)CC2)C1CCC1`: the cytotoxicity at 70.5 h is -8.49%.

Take `Cc1ncccc1O[C@H]1CCN(C(=O)Cc2cccs2)CC[C@@H]1O`: the cytotoxicity at 70.5 h is -7.99%.

For the compound `CCNC(=O)CNC(=O)c1nc(C2CC2)n(-c2ccccc2Cl)n1`, the cytotoxicity at 70.5 h is -2.36%.

Take `COc1ccc(CN(C(=O)C2CCCS2)c2ccncc2)cc1` (stereo unspecified): the cytotoxicity at 70.5 h is -8.12%.

Consider `O=C(Cn1cnc2sccc2c1=O)NCCCc1nnc2ccccn12`, for which the cytotoxicity at 70.5 h is -17.5%.

As to `O=C1N(Cc2ccccn2)C[C@H]2CN(S(=O)(=O)c3ccccc3)CCN12`, the cytotoxicity at 70.5 h was -0.174%.

`Cc1nc(C)n(CCNC(=O)C(C)n2ccnc2C(C)C)n1` (stereo unspecified): the cytotoxicity at 70.5 h was -0.492%.

Regarding `O=S(=O)(NCc1ccccc1Cn1cncn1)N1CCCCC1`, the cytotoxicity at 70.5 h was -10.7%.

Take `Cn1nc(Cn2cccn2)c2c1CN(C1CCOC1)C2` (stereo unspecified): the cytotoxicity at 70.5 h is -6.25%.

For `Cc1nc(CN2CCCC(NCc3c(C)nc4sccn34)C2)no1` (stereo unspecified), the cytotoxicity at 70.5 h amounted to 1.63%.

On to `c1cc(CN2CC[C@H]3C[C@H](c4nc(C5CC5)cs4)O[C@@H]3C2)ccn1`, for which the cytotoxicity at 70.5 h is -7.31%.

With `Cc1noc(C)c1CN(C)c1nccc(C(F)(F)F)n1`, the cytotoxicity at 70.5 h came out at 4.31%.

With `Cc1ncoc1C(=O)N1CCn2c(COc3cccnc3)cnc2C1C` (stereo unspecified), the cytotoxicity at 70.5 h was 17.8%.

As for `c1cnc(N2CCCC3(COCCN(CC4CC4)C3)C2)nc1` (stereo unspecified), the cytotoxicity at 70.5 h is -10%.

Consider `COc1cccc(SCCCn2cnc3c(N)ncnc32)c1`, for which the cytotoxicity at 70.5 h was found to be 6.56%.

In the case of `O=C1CC2(CCN(CC3CC3)CC2)CN1Cc1cc(F)cc(F)c1`, the cytotoxicity at 70.5 h is -2.81%.

Regarding `CC(C)(CCS(C)(=O)=O)CNc1ccc2ccc(F)cc2n1`, the cytotoxicity at 70.5 h is -2.27%.

With `CC(c1ccccc1Cl)N(C(=O)CSCC(N)=O)C1CC1` (stereo unspecified), the cytotoxicity at 70.5 h came to 12.5%.

On to `CC(c1ccccc1Cl)N1CCN(C(=O)c2ccc(=O)[nH]c2)CC1` (stereo unspecified), for which the cytotoxicity at 70.5 h was 2%.

Turning to `CC(C)c1nccn1C1CCCN(C(=O)c2ccn(C)c(=O)c2)C1` (stereo unspecified), the cytotoxicity at 70.5 h was -4.13%.

For the compound `O=C(CCc1ccccc1)N[C@H]1CC[C@@]2(CCC(=O)N2)CC1`, the cytotoxicity at 70.5 h was -8.44%.

Turning to `COc1ccc(C(=O)N(C2CC2)C2CC(=O)NC2=O)cc1` (stereo unspecified), the cytotoxicity at 70.5 h was -2.33%.

Regarding `COc1ccc(OCCN2CCN(Cc3nccn3C)CC2)cc1`, the cytotoxicity at 70.5 h was 12.8%.

As to `CCN1CCN(CC(C)(O)c2cccc(C(F)(F)F)c2)CC1` (stereo unspecified), the cytotoxicity at 70.5 h is -10.9%.

For `O=S(=O)(c1ccc(Cl)s1)N1CCCC(c2ncc[nH]2)C1` (stereo unspecified), the cytotoxicity at 70.5 h is -1.59%.

As for `CN(CC(=O)N1CCCC(n2ccnc2)C1)c1cnccn1` (stereo unspecified), the cytotoxicity at 70.5 h was -1.54%.

As for `CC1CN(C(=O)NCc2ccn(C)c2)CCN1CC(F)(F)F` (stereo unspecified), the cytotoxicity at 70.5 h turned out to be 32.3%.

Regarding `O=C(NC1COC2(CCN(CC3CCC3)CC2)C1)c1ccccn1` (stereo unspecified), the cytotoxicity at 70.5 h was determined as 1.22%.

Regarding `Cc1cnc(N2CCC3(CCC(C(=O)NC(C)C)C3)CC2)nc1` (stereo unspecified), the cytotoxicity at 70.5 h is -7.58%.

As to `O=C(CC1CC1)NC[C@]12COC[C@H]1CN(c1ncc(F)cn1)C2`, the cytotoxicity at 70.5 h was -2.2%.

For the compound `O=C(CCc1ccsc1)N1CCCC(N2CCNC2=O)C1` (stereo unspecified), the cytotoxicity at 70.5 h was -10.5%.

For `CC(CNC(=O)NCc1ccoc1)N1CCc2sccc2C1` (stereo unspecified), the cytotoxicity at 70.5 h turned out to be 6.45%.

In the case of `CCCc1nc(N2Cc3cnn(Cc4ccc(F)cc4)c3C2)no1`, the cytotoxicity at 70.5 h was -12.8%.

As for `Nc1ccnc(N2CCC(CCc3ccccc3)(C(=O)O)CC2)n1`, the cytotoxicity at 70.5 h is 14.5%.

For `Cc1nc(NCc2scnc2-c2ccccc2)cc(C2CCNCC2)n1`, the cytotoxicity at 70.5 h is -6.26%.

In the case of `CN(CCC#N)C(=O)CN1CCCC1c1cccs1` (stereo unspecified), the cytotoxicity at 70.5 h is -4.47%.

For `CNC(=O)NC(=O)CNc1cc(C(=O)OC)cc(C(F)(F)F)c1`, the cytotoxicity at 70.5 h amounted to 1.77%.

On to `CC(C)N1CCCC(C(=O)NCCCc2cnn(C)c2)C1` (stereo unspecified), for which the cytotoxicity at 70.5 h came out at 17.4%.

`Cc1ccc(S(N)(=O)=O)cc1C(=O)NC1CCN(C2CC2)CC1`: the cytotoxicity at 70.5 h was 21.9%.

Consider `COCCN1CCN(CC(O)c2cc(OC)ccc2OC)CC1` (stereo unspecified), for which the cytotoxicity at 70.5 h was -6.61%.

Take `CC(=O)N1CCC(CN2CCN(Cc3nccn3C)C(C)C2)CC1` (stereo unspecified): the cytotoxicity at 70.5 h was 2.21%.

For `Cc1cc(NC(=O)CN2CCCC2c2noc(C3CC3)n2)on1` (stereo unspecified), the cytotoxicity at 70.5 h was -7.03%.

Regarding `CC(C)c1nn(C)c(N2CCOCC2)c1CNCc1nncn1C`, the cytotoxicity at 70.5 h worked out at 0.87%.

Consider `CCN(C(=O)NCc1cccnc1N(C)C)C(C)c1cccnc1` (stereo unspecified), for which the cytotoxicity at 70.5 h is -8.8%.

Turning to `c1ccc(-n2ccc(CNCC3CCCN3c3cccnn3)n2)cc1` (stereo unspecified), the cytotoxicity at 70.5 h turned out to be 0.819%.

Consider `O=c1[nH][nH]cc1-c1ccnc(NCCc2cccc(O)c2)n1`, for which the cytotoxicity at 70.5 h is -7.19%.

`Nc1nnc(CCNc2ncnc3c2CCN(C(=O)C2CC2)C3)s1`: the cytotoxicity at 70.5 h is -4.19%.

As for `OCC1CCCCN1CCn1ccnc1-c1nc2ccccc2[nH]1` (stereo unspecified), the cytotoxicity at 70.5 h was -2.11%.

In the case of `CCn1c(C)nnc1SCCNC(=O)c1cnc(C(C)(C)C)nc1O`, the cytotoxicity at 70.5 h came out at 14.5%.

Take `Cc1noc(C)c1CC(=O)NCC(C(C)C)N1CCOCC1` (stereo unspecified): the cytotoxicity at 70.5 h was -10.6%.

Consider `CCOc1ccc2nc(NC(=O)c3c(C(=O)O)cnn3C)sc2c1`, for which the cytotoxicity at 70.5 h was -14.2%.

With `O=C(c1ccon1)N1CCCCC1c1nc2cc(F)ccc2[nH]1` (stereo unspecified), the cytotoxicity at 70.5 h is -5.01%.

Regarding `Cc1nncn1CCNC(=O)C1SCCc2sccc21` (stereo unspecified), the cytotoxicity at 70.5 h was -3.34%.

On to `COCC(=O)NCc1nn(CCN2CCCC2)c(=O)c2ccccc12`, for which the cytotoxicity at 70.5 h stood at 29%.

Consider `Cc1cnc(-c2nc(C3CCCN(Cc4cccs4)C3)no2)cn1` (stereo unspecified), for which the cytotoxicity at 70.5 h is 23.7%.

As to `CN(CCn1cccn1)S(=O)(=O)N1CCCC1c1ccco1` (stereo unspecified), the cytotoxicity at 70.5 h is -17%.

As to `CC(C)c1nnc2n1CC(CNCc1ccc3c(c1)OCCO3)CC2` (stereo unspecified), the cytotoxicity at 70.5 h was -3.48%.

For the compound `CC(C)(C)CN(CCC#N)C(=O)Nc1cccc(N2CCNC2=O)c1`, the cytotoxicity at 70.5 h was -10.7%.

On to `COc1ccc(CCN2CCCC(CN(C)Cc3ccc(C)o3)C2)cc1` (stereo unspecified), for which the cytotoxicity at 70.5 h is -5.02%.

For `CCC(CN1CCOCC1)NC(=O)Cc1c(C)[nH]c2cc(C)cc(C)c12` (stereo unspecified), the cytotoxicity at 70.5 h came to 0.203%.

`Cc1cc2[nH]c(=O)c(=O)[nH]c2cc1S(=O)(=O)NC1CCCCC1`: the cytotoxicity at 70.5 h was -3.77%.

`Cc1c[nH]c(C2CCCN2C(=O)CCc2c(C)n[nH]c2C)n1` (stereo unspecified): the cytotoxicity at 70.5 h was -11.3%.

Turning to `Cc1ccc(C(=O)NCCCn2cncn2)c(=O)[nH]1`, the cytotoxicity at 70.5 h stood at 21.9%.

Turning to `OC[C@@H]1CCCN1c1nccc(-c2c[nH]nc2-c2ccncc2)n1`, the cytotoxicity at 70.5 h is -2.39%.

With `Cc1cc(C)nc(C2CCN(C(=O)c3cncnc3C)C2)n1` (stereo unspecified), the cytotoxicity at 70.5 h stood at 12.9%.

With `CN1CCc2c(C#N)c(NCc3cccnc3)n3cnnc3c2C1`, the cytotoxicity at 70.5 h was -27%.

In the case of `Cc1cc(CNC2(CO)CCOCC2)ccc1Br`, the cytotoxicity at 70.5 h was -0.894%.

Consider `NC(=O)COc1cccc(Cn2cccn2)c1`, for which the cytotoxicity at 70.5 h was -3.94%.
